From patent publication US8124647B2 (priority 2002, dated 2012)

Key:
[1] = target: T1, human androgen receptor (Homo sapiens, UniProt P10275); assay: androgenic activity (EC50 and intrinsic activity), transactivation bioassay in CHO-AR-pMMTV-LUC cells (Table 4); type: cell-based; settings: androgenic activity, read-out: ago EC50
T1 construct: expressed in transfected cells; host or cells: CHO cells, cell line CHO-AR-pMMTV-LUC 1G12-A5-CA
T1 sequence (P10275 1-920): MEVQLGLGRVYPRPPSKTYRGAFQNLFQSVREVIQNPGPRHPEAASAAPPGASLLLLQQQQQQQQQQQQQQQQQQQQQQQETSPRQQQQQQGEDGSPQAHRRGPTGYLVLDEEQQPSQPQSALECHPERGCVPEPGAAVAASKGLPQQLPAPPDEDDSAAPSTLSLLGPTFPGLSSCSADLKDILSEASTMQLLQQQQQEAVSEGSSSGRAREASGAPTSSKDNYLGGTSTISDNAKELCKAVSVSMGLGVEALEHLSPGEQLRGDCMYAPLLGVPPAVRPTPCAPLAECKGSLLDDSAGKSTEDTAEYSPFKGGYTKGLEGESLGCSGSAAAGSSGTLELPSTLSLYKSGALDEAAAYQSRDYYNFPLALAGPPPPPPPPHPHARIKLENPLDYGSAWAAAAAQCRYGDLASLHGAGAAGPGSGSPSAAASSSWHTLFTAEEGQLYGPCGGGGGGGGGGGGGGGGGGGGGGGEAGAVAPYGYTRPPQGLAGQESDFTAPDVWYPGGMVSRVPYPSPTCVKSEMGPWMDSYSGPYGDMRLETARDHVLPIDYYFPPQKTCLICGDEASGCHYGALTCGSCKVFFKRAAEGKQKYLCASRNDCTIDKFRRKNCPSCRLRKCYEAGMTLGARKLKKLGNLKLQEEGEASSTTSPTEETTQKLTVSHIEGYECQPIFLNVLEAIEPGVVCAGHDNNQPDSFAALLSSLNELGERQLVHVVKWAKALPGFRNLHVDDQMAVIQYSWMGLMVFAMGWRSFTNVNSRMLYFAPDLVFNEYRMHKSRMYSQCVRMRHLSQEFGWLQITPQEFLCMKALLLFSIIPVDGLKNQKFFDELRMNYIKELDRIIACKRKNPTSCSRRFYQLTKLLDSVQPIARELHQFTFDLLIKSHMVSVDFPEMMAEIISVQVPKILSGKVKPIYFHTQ
Procedure: (§1) Compounds were tested for their Androgen Receptor activity in a transactivation assay and in a binding assay.
(§2) The (anti-)androgenic activity of test compounds (EC50 and intrinsic activity) was determined in an in vitro bioassay of Chinese hamster ovary (CHO) cells stably transfected with the human androgen receptor expression plasmid and a reporter plasmid in which the MMTV-promoter is linked to the luciferase reporter gene. The cell-line CHO-AR-pMMTV-LUC 1G12-A5-CA is described in Schoonen et al. (2000), Journal of Steroid Biochemistry and Molecular Biology 74(4):213-222. The antiandrogenic activity of a test compound was determined by the inhibition of the transactivation via the androgen receptor of the enzyme luciferase in the presence of 1 nM DHT (5α-dihydrotestosterone, 17β-hydroxy-5α-androstan-3-one). Intrinsic activity of antiandrogenic activity was determined in the presence of the reference antiandrogen 2-Hydroxy-2-methyl-N-(4-nitro-3-trifluoromethyl-phenyl)-propionamide(Hydroxyflutamide), and set at 100%. For androgenic activity, maximal intrinsic activity in the presence of 100 nM DHT was set at 100%.

[2] = target: T1, human androgen receptor; assay: cell-based; settings: antiandrogenic activity, in the presence of 1 nM DHT; read-out: ant EC50
Procedure: as §1, §2

Question: Which EC50 [1] does the source give for `O=[N+]([O-])c1ccccc1Sc1cn(Cc2cc(F)cc(F)c2)c2cc(O)ccc12` [Compound 61, 1-(3,5-Difluoro-benzyl)-3-(2-nitro-phenylsulfanyl)-1H-indol-6-ol] here?
Answer: < 0.005 µM

Question: How did the EC50 [1] turn out when `COc1ccc2c(Sc3ccccc3[N+](=O)[O-])cn(Cc3cccnc3)c2c1` [Compound 75] was run?
Answer: < 0.005 µM

Question: What about the EC50 [2] of the same compound?
Answer: > 10 µM

Question: `COc1ccc2c(Sc3ccccc3[N+](=O)[O-])cn(Cc3cccc(C)c3)c2c1` [Compound 73] was tested. Which EC50 [1] did it give?
Answer: 0.005 to 0.1 µM

Question: What about the EC50 [2] of the same compound?
Answer: > 10 µM

Question: With `COC(=O)CNC(=O)c1ccc2c(Sc3ccccc3[N+](=O)[O-])cn(Cc3cc(F)cc(F)c3)c2c1` [Compound 39] as the compound, how does the EC50 [1] read?
Answer: 0.005 to 0.1 µM

Question: And the EC50 [2]?
Answer: > 10 µM

Question: Which EC50 [1] does the source give for `COc1ccc2c([S+]([O-])c3ccccc3[N+](=O)[O-])cn(Cc3cc(F)cc(F)c3)c2c1` (stereo not drawn) [Compound 64, 1-(3,5-Difluoro-benzyl)-6-methoxy-3-(2-nitro-benzenesulfinyl)-1H-indole] here?
Answer: > 10 µM

Question: What about the EC50 [2] of the same compound?
Answer: < 1 µM

Question: How did the EC50 [1] turn out when `O=[N+]([O-])c1ccccc1Sc1cn(Cc2cc(F)cc(F)c2)c2ccc(O)cc12` [Compound 56] was run?
Answer: < 0.005 µM

Question: Which EC50 [1] does the source give for `COC(=O)c1ccc2c(Sc3ccccc3[N+](=O)[O-])cn(Cc3cc(F)cc(F)c3)c2c1` [Compound 31, 1-(3,5-Difluoro-benzyl)-3-(2-nitro-phenylsulfanyl)-1H-indole-6-carboxylic acid methyl ester] here?
Answer: < 0.005 µM

Question: And the EC50 [2]?
Answer: > 10 µM

Question: `O=[N+]([O-])c1ccccc1Sc1cn(Cc2cc(F)cc(F)c2)c2cc(C(F)(F)F)ccc12` [Compound 23] was tested. Which EC50 [1] did it give?
Answer: < 0.005 µM

Question: What about the EC50 [2] of the same compound?
Answer: > 10 µM

Question: What does the source list for `O=C(NCc1ccco1)c1ccc2c(Sc3ccccc3[N+](=O)[O-])cn(Cc3cc(F)cc(F)c3)c2c1` [Compound 34]?
Answer: EC50 [1]: 0.005 to 0.1 µM; EC50 [2]: > 10 µM

Question: How did the EC50 [1] turn out when `COCCNC(=O)c1ccc2c(Sc3ccccc3[N+](=O)[O-])cn(Cc3cc(F)cc(F)c3)c2c1` [Compound 38] was run?
Answer: < 0.005 µM

Question: What about the EC50 [2] of the same compound?
Answer: > 10 µM

Question: For `O=[N+]([O-])c1ccccc1Sc1cn(Cc2cc(F)cc(F)c2)c2ccc(F)cc12` [Compound 53], which EC50 [1] is on record?
Answer: 0.005 to 0.1 µM

Question: And the EC50 [2]?
Answer: > 10 µM

Question: For `O=C(c1ccc2c(Sc3ccccc3[N+](=O)[O-])cn(Cc3cc(F)cc(F)c3)c2c1)N1CCCC1` [Compound 27], which EC50 [1] is on record?
Answer: 0.005 to 0.1 µM

Question: And the EC50 [2]?
Answer: > 10 µM

Question: What does the source list for `CC(=O)Nc1ccc2c(Sc3ccccc3[N+](=O)[O-])cn(Cc3cc(F)cc(F)c3)c2c1` [Compound 58, N-[1-(3,5-Difluoro-benzyl)-3-(2-nitro-phenylsulfanyl)-1H-indol-6-yl]-acetamide]?
Answer: EC50 [1]: < 0.005 µM; EC50 [2]: > 10 µM

Question: Which EC50 [1] does the source give for `O=C(c1ccc2c(Sc3ccccc3[N+](=O)[O-])cn(Cc3cc(F)cc(F)c3)c2c1)N1CCOCC1` [Compound 28] here?
Answer: 0.005 to 0.1 µM

Question: What about the EC50 [2] of the same compound?
Answer: > 10 µM

Question: `CN1CCN(C(=O)c2ccc3c(Sc4ccccc4[N+](=O)[O-])cn(Cc4cc(F)cc(F)c4)c3c2)CC1` [Compound 29] was tested. Which EC50 [1] did it give?
Answer: 0.005 to 0.1 µM

Question: What about the EC50 [2] of the same compound?
Answer: > 10 µM

Question: Which EC50 [1] does the source give for `COc1ccc2c(Sc3ccccc3CO)cn(Cc3cc(F)cc(F)c3)c2c1` [Compound 16, {2-[1-(3,5-Difluoro-benzyl)-6-methoxy-1H-indol-3-ylsulfanyl]-phenyl}-methanol] here?
Answer: 0.005 to 0.1 µM

Question: And the EC50 [2]?
Answer: 0.005 to 0.1 µM

Question: With `COc1ccc2c(Sc3ccccc3[N+](=O)[O-])cn(Cc3csc(C)n3)c2c1` [Compound 79] as the compound, how does the EC50 [1] read?
Answer: 0.005 to 0.1 µM

Question: What about the EC50 [2] of the same compound?
Answer: > 10 µM

Question: For `CNC(=O)c1ccccc1Sc1cn(Cc2cc(F)cc(F)c2)c2cc(OC)ccc12` [Compound 17, 2-[1-(3,5-Difluoro-benzyl)-6-methoxy-1H-indol-3-ylsulfanyl]-N-methyl-benzamide], which EC50 [1] is on record?
Answer: > 10 µM

Question: And the EC50 [2]?
Answer: < 1 µM

Question: With `COc1ccc2c(Sc3ccccc3[N+](=O)[O-])cn(Cc3ccccc3Cl)c2c1` [Compound 3] as the compound, how does the EC50 [1] read?
Answer: < 1 µM

Question: And the EC50 [2]?
Answer: > 10 µM
